Measurements taken from patent publication US20130005568A1, “SAFENED HERBICIDAL MIXTURES” (E.I. DU PONT DE NEMOURS AND COMPANY, priority 2011, published 2013).

What was measured:
[1] = system: Pioneer 39K40 hybrid maize; test: Test B: visual plant response rating, postemergence herbicides with Compound 1 rate series; assay type: in vivo, Zea mays L. spp. indentata Sturt.; conditions: in vivo
Protocol: (§1) For all of the following biological tests, plant response ratings were based on a 0-100 scale where zero is growth equivalent to that of untreated plants (no plant response) and 100 represents no additional growth occurring after herbicide treatment.
(§2) Herbicide mixtures were dissolved/dispersed in a non-phytotoxic liquid carrier and were sprayed postemergence to Pioneer 39K40 hybrid maize (Zea mays L. spp. indentata Sturt.) in the third collar growth stage (extended leaf height was 50-60 cm). Treated plants were grown under greenhouse conditions for two weeks before visual evaluations of plant responses were recorded.

[2] = system: Pioneer 39K40 hybrid maize; test: Test A: visual plant response rating, postemergence herbicide treatments alone and with Compound 1; assay type: in vivo, Zea mays L. spp. indentata Sturt.; conditions: in vivo
Protocol: as §1
as §2, with “Pioneer 39K40 hybrid maize used in this test (and also Tests B and C) is particularly sensitive to herbicides that inhibit the acetohydroxy acid synthase enzyme. Herbicide” for “Herbicide”

[3] = system: Pioneer 39K40 hybrid maize; test: Test C: visual plant response rating, postemergence acetohydroxy acid synthase-inhibiting herbicides alone and with Compound 1; assay type: in vivo, Zea mays L. spp. indentata Sturt.; conditions: greenhouse, two weeks, 0-100 scale
Protocol: as §1
as §2, with “40-60” for “50-60”

[4] = system: sugarcane; test: Test J: sugarcane postemergence plant response rating, field conditions; assay type: in vivo, Saccharum officinarum L.; conditions: postemergence, field, four weeks, 0-100 scale
Protocol: as §1
(§3) Herbicide mixtures were formulated, dissolved/dispersed in water containing 0.25% non-ionic surfactant, and sprayed postemergence to sugarcane (Saccharum officinarum L.) approximately 20-40 cm tall (extended leaf height). This test was conducted under field conditions. Visual evaluations of plant responses were recorded four weeks after the plants were treated.

[5] = system: palisade grass; test: Test K: pasture grass postemergence plant response rating, field conditions; assay type: in vivo, Brachiaria brizantha (Hochst. ex A. Rich) Stapf; conditions: Palisade grass, postemergence, field, four weeks, 0-100 scale
Source text: as §1
as §3, with “the pasture grasses: Surinam grass (Brachiaria decumbens Stapf), palisade grass (Brachiaria brizantha (Hochst. ex A. Rich) Stapf) and Alexandergrass (Brachiaria plantaginea (Link) A. S. Hitchc.)” for “sugarcane (Saccharum officinarum L.)”, “10-30” for “20-40”

[6] = system: sunflower variety Pioneer 63N82 bred for resistance to tribenuron-methyl; test: Test H: tribenuron-tolerant sunflower postemergence plant response rating; assay type: in vivo, Helianthus annuus L. var. Pioneer 63N82; conditions: 2-leaf stage, greenhouse, two weeks, 0-100 scale
Source text: as §1
Herbicide mixtures were formulated, dissolved/dispersed in water containing 0.25% non-ionic surfactant, and sprayed postemergence at the 2-leaf growth stage to a sunflower variety (Helianthus annuus L. var. Pioneer 63N82) bred for resistance to tribenuron-methyl. Treated plants were grown under greenhouse conditions for two weeks before visual evaluations of plant responses were recorded.

[7] = system: Surinam grass; test: Test K: pasture grass postemergence plant response rating, field conditions; assay type: in vivo, Brachiaria decumbens Stapf; conditions: Surinam grass, postemergence, field, four weeks, 0-100 scale
Source text: as §1
as §3, with “the pasture grasses: Surinam grass (Brachiaria decumbens Stapf), palisade grass (Brachiaria brizantha (Hochst. ex A. Rich) Stapf) and Alexandergrass (Brachiaria plantaginea (Link) A. S. Hitchc.)” for “sugarcane (Saccharum officinarum L.)”, “10-30” for “20-40”

[8] = system: Alexandergrass; test: as above; assay type: in vivo, Brachiaria plantaginea (Link) A. S. Hitchc.; conditions: Alexandergrass, postemergence, field, four weeks, 0-100 scale
Source text: as §1
as §3, with “the pasture grasses: Surinam grass (Brachiaria decumbens Stapf), palisade grass (Brachiaria brizantha (Hochst. ex A. Rich) Stapf) and Alexandergrass (Brachiaria plantaginea (Link) A. S. Hitchc.)” for “sugarcane (Saccharum officinarum L.)”, “10-30” for “20-40”

[9] = system: lambsquarters; test: Test I: postemergence plant response rating; assay type: in vivo, Chenopodium album L.; conditions: lambsquarters, postemergence, greenhouse, two weeks, 0-100 scale
Source text: as §1
(§4) Herbicide mixtures were formulated, dissolved/dispersed in water containing 0.25% non-ionic surfactant, and sprayed postemergence to the crop: soybean (Glycine max (L.) Merr.) at the 2-leaf growth stage and to weeds: lambsquarters (Chenopodium album L.) and velvetleaf (Abutilon theophrasti Medik.). Weed species were 5-10 cm tall when treated. Treated plants were grown under greenhouse conditions for two weeks before visual evaluations of plant responses were recorded.

[10] = system: velvetleaf; test: Test I: postemergence plant response rating; assay type: in vivo, Abutilon theophrasti Medik.; conditions: velvetleaf, postemergence, greenhouse, two weeks, 0-100 scale
Source text: as §1, §4

[11] = herbicide 8 g ai/ha + Compound 1 125 g ai/ha
[12] = herbicide 30 g ai/ha + Compound 1 70 g ai/ha
[13] = herbicide 30 g ai/ha + Compound 1 140 g ai/ha
[14] = herbicide 4 g ai/ha + Compound 1 125 g ai/ha

In the case of `CCS(=O)(=O)c1cccnc1S(=O)(=O)NC(=O)Nc1nc(OC)cc(OC)n1` [Rimsulfuron, rimsulfuron], the “Observed Response, Herbicide alone” value [1] is reported as 62 and the “Observed Response, Herbicide alone” value [2] is reported as 92.
`COC(=O)c1ccccc1S(=O)(=O)NC(=O)Nc1nc(C)cc(C)n1` [Sulfometuron-methyl, sulfometuron-methyl] was tested, and the “Observed Response, Herbicide mixture with Compound 1” value (shortened to “Observed Response, Herbicide mixture”) [3, 11] was 100, the “Observed Response, Herbicide alone” value ([3]; herbicide 8 g ai/ha) was 100 and the “Observed Response, Herbicide mixture” value [4, 12] was 45. For the same molecule, the “Observed Response, Herbicide mixture” value [4, 13] was 30, the “Observed Response, Herbicide alone” value ([4]; herbicide 30 g ai/ha) was 60 and the “Observed Response, Herbicide mixture” value [5, 12] was 40. The “Observed Response, Herbicide mixture” value [5, 13] was 20, the “Observed Response, Herbicide alone” value ([5]; herbicide 30 g ai/ha) was 45 and the “Observed Response, Herbicide mixture” value [6, 14] was 7. For the same molecule, the “Observed Response, Herbicide alone” value ([6]; herbicide 4 g ai/ha) was 27, the “Observed Response, Herbicide mixture” value [6, 11] was 3 and the “Observed Response, Herbicide alone” value ([6]; herbicide 8 g ai/ha) was 30. For the same molecule, the “Observed Response, Herbicide mixture” value ([6]; herbicide 16 g ai/ha + Compound 1 125 g ai/ha) was 3, the “Observed Response, Herbicide alone” value ([6]; herbicide 16 g ai/ha) was 33 and the “Observed Response, Herbicide mixture” value ([6]; herbicide 31 g ai/ha + Compound 1 125 g ai/ha) was 7. For the same molecule, the “Observed Response, Herbicide alone” value ([6]; herbicide 31 g ai/ha) was 37, the “Observed Response, Herbicide mixture” value ([6]; herbicide 62 g ai/ha + Compound 1 125 g ai/ha) was 7 and the “Observed Response, Herbicide alone” value ([6]; herbicide 62 g ai/ha) was 40. For the same molecule, the “Observed Response, Herbicide mixture” value [7, 12] was 45, the “Observed Response, Herbicide mixture” value [7, 13] was 30 and the “Observed Response, Herbicide alone” value ([7]; herbicide 30 g ai/ha) was 50. For the same molecule, the “Observed Response, Herbicide mixture” value [8, 12] was 45, the “Observed Response, Herbicide mixture” value [8, 13] was 30 and the “Observed Response, Herbicide alone” value ([8]; herbicide 30 g ai/ha) was 50.
With `COC(=O)c1sccc1S(=O)(=O)NC(=O)Nc1nc(C)nc(OC)n1` [Thifensulfuron-methyl, thifensulfuron-methyl] the “Observed Response, Herbicide mixture” value [9, 14] was 99, the “Observed Response, Herbicide alone” value ([9]; herbicide 4 g ai/ha) was 98 and the “Observed Response, Herbicide mixture” value [9, 11] was 100. For the same molecule, the “Observed Response, Herbicide alone” value ([9]; herbicide 8 g ai/ha) was 100, the “Observed Response, Herbicide alone” value [1] was 45 and the “Observed Response, Herbicide alone” value [2] was 73. The “Observed Response, Herbicide mixture” value [10, 14] was 99, the “Observed Response, Herbicide alone” value ([10]; herbicide 4 g ai/ha) was 99 and the “Observed Response, Herbicide mixture” value [10, 11] was 100. For the same molecule, the “Observed Response, Herbicide alone” value ([10]; herbicide 8 g ai/ha) was 100.
